In the experiment the target is T1, hematopoietic prostaglandin D2 synthase (HPGDS) (Homo sapiens, UniProt O60760).
T1 construct: human recombinant
The experiment is described as follows: fluorescence polarisation probe-displacement assay (Cayman kit #[…]), recombinant human HPGDS. Format: binding. A general note: Fluorescence polarisation rises when a labelled molecule tumbles more slowly, as on binding a larger partner.

Usually IC50 stands for the point on the concentration scale where inhibition reaches its midpoint.

T1 sequence (O60760 whole entry): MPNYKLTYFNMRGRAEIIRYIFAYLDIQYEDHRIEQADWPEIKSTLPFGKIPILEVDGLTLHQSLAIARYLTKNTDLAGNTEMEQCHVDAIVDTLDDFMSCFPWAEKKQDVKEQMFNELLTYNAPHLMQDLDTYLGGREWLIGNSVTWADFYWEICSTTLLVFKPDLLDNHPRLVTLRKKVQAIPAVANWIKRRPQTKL

Take PK007: the IC50 came out at 1540 ± 260 nM.

(Values after publication PMC12020277, “Pharmacology and macrophage modulation of HPGDS inhibitor PK007 demonstrate reduced disease severity in DMD-affected muscles of the mdx mouse model” (Skeletal Muscle, 2025).)
